Laboratory results from US11076595B2, “1-(n,n-disubstituted carbamoyl) 4-(substituted sulfonyl)triazolin-5-one derivative, 4-(n,n-disubstituted carbamoyl) 1-(substituted sulfonyl)triazolin-5-one derivative, and herbicide containing said derivative as active ingredient” (HOKKO CHEMICAL INDUSTRY CO., LTD., priority 2017, dated 2021).

What was measured:
Assay type in all cases: in vivo
Echinochloa crus-galli [1] = test: Test Example 11: herbicidal effect test by soil treatment in paddy field; details: 120 g/10a active ingredient, 14 days after treatment
In short: (§1)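 Pre-emergence flooded-paddy test: the water-diluted emulsifiable concentrate, 120 g active ingredient per 10 are, was dripped into pots immediately after seeding, with water held at about 3 cm. Two replicate pots per rate; 14 days after treatment, plant dry weight versus untreated pots gave the weed suppression rate.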

Lindernia pyxidaria [2] = test: as above; details: 120 g/10a active ingredient, 14 days after treatment
In short: as §1

Monochoria vaginalis [3] = test: as above; details: 120 g/10a active ingredient, 14 days after treatment
In short: as §1

Scirpus juncoides [4] = test: as above; details: 120 g/10a active ingredient, 14 days after treatment
In short: as §1

Echinochloa crus-galli [5] = test: Test Example 12: herbicidal effect test by treatment during growing period in paddy field; details: 120 g/10a; treatment seven days after sowing in flooded paddy pot; assessed 14 days after treatment
In short: (§2)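 Paddy soil + NPK 17:17:17, puddled; 30 seeds/species sown 0–1 cm; flooded ~3 cm, greenhouse. Day 7 post-sowing: EC diluted in water, applied dropwise into water, 120 g a.i./10 are. Day 14 post-treatment: dry weight vs untreated → % suppression; n=2.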

Lindernia pyxidaria [6] = test: as above; details: 120 g/10a; treatment seven days after sowing in flooded paddy pot; assessed 14 days after treatment
In short: as §2

Monochoria vaginalis [7] = test: as above; details: 120 g/10a; treatment seven days after sowing in flooded paddy pot; assessed 14 days after treatment
In short: as §2

Scirpus juncoides [8] = test: as above; details: 120 g/10a; treatment seven days after sowing in flooded paddy pot; assessed 14 days after treatment
In short: as §2

Amaranthus viridis [9] = test: Test Example 13: herbicidal effect test by soil treatment in upland field; details: 120 g/10a, 14 days after treatment
In short: (§3)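 Weed suppression rate (%) computed at 14 days as 1 minus treated/untreated mean dry weight, times 100, with two replicates per concentration. Emulsifiable concentrate diluted in water was applied at 120 g a.i. per 10 are (100 liter per 10 are) onto soil surface one day post-sowing of 20 seeds each in 36 cm^2 pots of alluvial soil.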

Chenopodium album [10] = test: as above; details: 120 g/10a, 14 days after treatment
In short: as §3

Echinochloa crus-galli [11] = test: as above; details: 120 g/10a, 14 days after treatment
In short: as §3

crabgrass [12] = test: as above; details: 120 g/10a, 14 days after treatment
In short: as §3

Chenopodium album [13] = test: Test Example 14: herbicidal effect test by foliage treatment in upland field; details: 7 days after sowing, 120 g/10a, 14 days after treatment
In short: (§4)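 Emulsifiable concentrate, water-diluted, is applied post-emergence to 7-day-old sowings in field soil at 120 g active ingredient per 10 are. The weed suppression rate derives from average dry weights versus untreated controls, measured 14 days later.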

crabgrass [14] = test: as above; details: 7 days after sowing, 120 g/10a, 14 days after treatment
In short: as §4

Amaranthus viridis [15] = test: as above; details: 7 days after sowing, 120 g/10a, 14 days after treatment
In short: as §4

Echinochloa crus-galli [16] = test: as above; details: 7 days after sowing, 120 g/10a, 14 days after treatment
In short: as §4

SMILES	Weed suppression rate (%) Echinochloa crus-galli (Echinochloa crus-galli [1])	Weed suppression rate (%) Lindemia pyxidaria (Lindernia pyxidaria [2])	Weed suppression rate (%) Monochoria vaginalis (Monochoria vaginalis [3])	Weed suppression rate (%) Scirpus juncoides (Scirpus juncoides [4])	Weed suppression rate (%) Echinochloa crus-galli (Echinochloa crus-galli [5])	Weed suppression rate (%) Lindemia pyxidaria (Lindernia pyxidaria [6])	Weed suppression rate (%) Monochoria vaginalis (Monochoria vaginalis [7])	Weed suppression rate (%) Scirpus juncoides (Scirpus juncoides [8])	herbicidal effect, Amaranthus viridis (Amaranthus viridis [9])	herbicidal effect, Chenopodium album (Chenopodium album [10])	herbicidal effect, Echinochloa crus-galli (Echinochloa crus-galli [11])	herbicidal effect, Crabgrass (crabgrass [12])	herbicidal effect, Chenopodium album (Chenopodium album [13])	herbicidal effect, Crabgrass (crabgrass [14])	herbicidal effect, Amaranthus viridis (Amaranthus viridis [15])	herbicidal effect, Echinochloa crus-galli (Echinochloa crus-galli [16])
CC(C)N(C(=O)n1cnn(S(=O)(=O)C2CCC2)c1=O)c1ccc(F)cc1F [Compound 11-258]	100%	100%	100%	100%	90%	90%	90%	90%	100%	100%	100%	100%	80%	90%	90%	80%
CC(C)N(C(=O)n1cnn(S(=O)(=O)C2CCCC2)c1=O)c1ccc(F)cc1F [Compound 11-273]	100%	100%	90%	90%	100%	90%	90%	90%	60%	90%	90%	100%	80%	90%	90%	80%
CC(C)N(C(=O)n1cnn(S(=O)(=O)C2CCCCC2)c1=O)c1ccccc1 [Compound 11-283]	100%	90%	70%	90%	90%	90%	90%	90%	90%	80%	80%	90%	80%	90%	90%	80%
CC(C)N(C(=O)n1cnn(S(=O)(=O)C2CCCCC2)c1=O)c1ccc(F)cc1F [Compound 11-294]	100%	100%	100%	100%	100%	80%	90%	90%	90%	80%	80%	90%	80%	90%	90%	80%
CC(C)N(C(=O)n1cnn(S(=O)(=O)C2CCCCC2)c1=O)c1c(F)cccc1F [Compound 11-296]	100%	100%	70%	100%	100%	80%	90%	90%	60%	70%	100%	100%	70%	100%	90%	100%
CC(C)N(C(=O)n1cnn(S(=O)(=O)C2CCCCC2)c1=O)c1ccc(F)c(F)c1F [Compound 11-297]	100%	100%	90%	100%	100%	70%	100%	100%	100%	70%	90%	90%	60%	100%	90%	100%
CC(C)N(C(=O)n1cnn(S(=O)(=O)C2CCCCC2)c1=O)c1c(F)cc(F)cc1F [Compound 11-298]	100%	100%	100%	100%	100%	80%	80%	100%	60%	60%	100%	100%	70%	100%	60%	100%
CC(C)N(C(=O)n1cnn(S(=O)(=O)C2CCCCC2)c1=O)c1ccc(F)cc1Cl [Compound 11-301]	90%	80%	80%	90%	90%	80%	80%	90%	90%	80%	80%	90%	80%	90%	90%	80%
CC(C)N(C(=O)n1cnn(S(=O)(=O)c2ccccc2)c1=O)c1ccc(F)cc1F [Compound 11-367]	100%	100%	90%	90%	100%	90%	90%	90%	40%	40%	100%	100%	40%	90%	40%	90%
CC(C)N(C(=O)n1cnn(S(=O)(=O)c2cccc(F)c2)c1=O)c1ccccc1 [Compound 11-427]	100%	80%	60%	60%	90%	90%	90%	90%	40%	60%	70%	90%	60%	90%	40%	40%
